# In the RepoRT retention time repository:
# Test: RP, Waters ACQUITY UPLC BEH C18, 50 × 2.1 mm, 1.7 µm, 55 °C, 0.4 mL/min, estimated dead time 0.28 min; A: 40% water + 60% acetonitrile + 0.1% acetic acid + 10 mM ammonium acetate; B: 10% acetonitrile + 90% isopropanol + 0.1% acetic acid + 10 mM ammonium acetate; gradient (min/%B) 0/40 2/43 2.1/50 12/54 12.1/70 18/99 19/99
# Details: stereoisomer not certain
row,Compound,LC retention time [min]
1,C=CCCCCCCCCC(=O)O [undecylenic acid],1
2,CC12CCC3C(CCC4CC(OS(=O)(=O)O)CCC43C)C1CCC2=O (stereo not drawn),1
3,CCCCCCCCCCCC(=O)O [lauric acid],1
4,CCCCCCCCCCCCC(O)C(=O)O (stereo not drawn) [2-hydroxymyristic acid],0.92
5,CCCCC/C=C\C/C=C\CCCCCCCC(=O)O [linoleic acid],2
6,CCCCCC=CCC=CCCCCCCCC(=O)OC(COC(=O)CCCCCCCCCCCCCCC)COP(=O)([O-])OCC[N+](C)(C)C (stereo not drawn) [PC(16:0/18:2)],7
7,CCCCCCCC/C=C\CCCCCCCCCCCC(=O)O [cis-13-docosenoic acid],4
8,CCCCCC/C=C\CCCC(=O)O [cis-5-dodecenoic acid],1
9,CC(CCC(=O)O)C1CCC2C3C(O)CC4CC(O)CCC4(C)C3CC(O)C12C (stereo not drawn) [cholic acid],1
10,CCCCCC=CCC=CCC=CCC=CCCCC(=O)OC(COCCCCCCCCCCCCCCCC)COP(=O)([O-])OCC[N+](C)(C)C (stereo not drawn) [PC(O-16:0/20:4)],8
11,CCCCCCCCCCCCCCCC(=O)OCC(O)COP(=O)([O-])OCC[N+](C)(C)C (stereo not drawn) [LPC(16:0/0:0)],1.35
12,CCCCCC=CCC=CCC=CCC=CCCCC(=O)O [arachidonic acid],2
13,CCCCCCCCC=CCCCCCCCC(=O)OC(COC(=O)CCCCCCCCCCCCCCC)COP(=O)(O)OC1C(O)C(O)C(O)C(O)C1O (stereo not drawn) [PI(16:0/18:1)],6
